Experimental data reported in patent publication US8097725B2, “Luminescent indicator dye and optical sensor” (Roche Diagnostics Operations, Inc., priority 2004, dated 2012).

What was measured:
[1] = pH titration of luminescence intensity of the optical sensor disc; type: physicochemical
Protocol: The indicator layer casting solution was coated onto a polyester foil (Melinex foil, ICI America) and the solvent was evaporated. The final dry thickness of the indicator layer was approximately 10 μm. Then, the overcoat layer casting solution was coated onto the indicator layer and the solvent was evaporated. The final a dry thickness of the overcoat layer was about 5 μm. Then, a small sensor disc (2.5 cm diameter) was punched out and soaked in buffer for at least 17 h for activation.
Aliquots of solutions A and B were mixed in appropriate rations to obtain eleven pH buffer solutions of pH 2.67, 3.66, 5.41, 6.35, 6.74, 7.28, 7.76, 8.29, 8.78, 9.81, 10.79, respectively. The pHs were determined at 37° C. with a standard glass electrode.
The sensor discs thus obtained were used in the measuring set-up represented schematically in FIG. 2. In FIG. 2, the reference character S denotes a portion of the sensor disc. […]
[formula] L denotes luminescence intensity and Lm denotes maximum luminescence intensity. […] (ON intensity=luminescence intensity of the protonated species (i.e., in FIG. 3 the intensity at pHs<5), OFF intensity=intensity of the deprotonated species (i.e., in FIG. 3 the intensity at pHs>10).

[2] = immobilized in a hydrogel matrix; FIG. 3 in Werner et al.; cited from earlier work

OFF intensity as percentage of ON intensity ([1]; ON = protonated species (pH<5), OFF = deprotonated species (pH>10)) [%]	pK value ([1]; immobilized on PVP beads dispersed in hydrophilic polymer layer, 37° C., buffers pH 2.67-10.79, least squares fit of intensity vs pH, excitation 480 nm, emission 520 nm cut-off)	Compound	pK [2]
5	7.25	O=C(O)c1ccc(CN2C(=O)c3cccc4c(NCCc5cc(Cl)c(O)c(Cl)c5)ccc(c34)C2=O)cc1 [Dye A41]	–
–	–	CC1=CC(C)=[N+]2C1=C(c1ccc(N(C)C)cc1)c1c(C)cc(C)n1[B-]2(F)F [1,3,5,7-tertramethyl-8-(4-dimethylamino)-4-difluorobora-3a,4a-diaza(s)-indacene]	3.3
